Like-named read-outs stand apart in the source and are kept apart here.
How the values were obtained:
[1] = test system: HCT-116 colon carcinoma; experiment: Inhibition of Cell Proliferation (14C-thymidine incorporation), HCT-116; type: cell-based; settings: Homo sapiens, HCT-116 cell line
Procedure, shortened: (§1)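 Cells seeded 3000–8000 per well on scintillating plates, grown 24 h, then exposed to compound in DMSO for 24 h before 0.2 μCi/well methyl-14C-thymidine was added for a further 24 h with drug, 37° C., 5% CO2. Proliferation measured as thymidine incorporation into DNA by scintillation counting after PBS washes.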

[2] = biological target: T1, MAP Kinase (ERK-2 isoform) (Rattus norvegicus, UniProt P63086); experiment: Kinase Selectivity Assay MAP Kinase (ERK-2); type: biochemical; settings: Kinase Selectivity, Tables 2a-2k; read-out: ERK 2 IC50
T1 construct: polyhistidine (N); host or cells: E. coli
Procedure, shortened: (§2)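 Biotinylated peptide phosphorylation measured as ^33P-γ-ATP incorporation on streptavidin plates after 1 h at 30° C, 1% DMSO final, enzyme in 50 mM Tris-HCl pH 8.0, 0.1% BSA. Compounds in duplicate at 8 concentrations, 100 uM to 10 pM. IC50 from percent inhibition versus log concentration.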

[3] = biological target: T2, Protein Kinase A (Bos taurus, UniProt P00517); experiment: Kinase Selectivity Assay Protein Kinase A; type: biochemical, bovine; settings: Kinase Selectivity, Tables 2a-2k; read-out: PKA IC50
T2 construct: purified from bovine heart; purchased Upstate Biotech 14-114; host or cells: bovine heart
Procedure, shortened: as §2

[4] = biological target: Insulin Receptor Kinase (Homo sapiens, UniProt P06213); experiment: Kinase Selectivity Assay Insulin Receptor Kinase; type: biochemical; settings: Kinase Selectivity, Tables 2a-2k; read-out: Insulin R Kinase IC50
Procedure, shortened: as §2

[5] = test system: HeLa cervical adenocarcinoma; experiment: Inhibition of Cell Proliferation (14C-thymidine incorporation), HeLa; type: cell-based; settings: Homo sapiens, HeLa cell line
Procedure, shortened: as §1

[6] = biological target: T3, Calmodulin Kinase (calmodulin-dependent protein kinase 2) (Rattus norvegicus, UniProt P11275); experiment: Kinase Selectivity Assay Calmodulin Kinase; type: biochemical; settings: Kinase Selectivity, Tables 2a-2k; read-out: Calmodulin Kinase 2 IC50
T3 construct: a truncated version of the alpha subunit of the rat protein; purchased New England Biolabs 6060; host or cells: insect cells
Procedure, shortened: as §2

[7] = test system: A375 malignant melanoma; experiment: Inhibition of Cell Proliferation (14C-thymidine incorporation), A375; type: cell-based; settings: Homo sapiens, A-375, A375 cell line
Procedure: The ability of a test compound to inhibit the proliferation of cell growth was determined by measuring incorporation of ^14C-labelled thymidine into newly synthesized DNA within the cells. This method was used on cell lines derived from carcinomas originating from several tissues such as HeLa cervical adenocarcinoma (American Type Culture Collection (ATCC), Virginia, Cat. #CCL-2), A375 malignant melanoma (ATCC CRL-1619), SK-OV-3 ovarian adenocarcinoma (ATCC HTB-77) HCT-116 colon carcinoma (CCL-247), PC-3 prostate adenocarcinoma (ATCC CRL-1435), and MDA-MB-231 (Xenogen Corp.) In this way the effect of a compound on cell growth of cells with many different phenotypes can be determined. Cells were trypsinized and counted and 3000-8000 cells were added to each well of a 96-well CytoStar tissue culture treated scintillating microplate (Amersham #RPNQ0160) in complete medium in a volume of 100 μl. Cells were incubated for 24 hours in complete medium at 37° C. in an atmosphere containing 5% CO2. Next, 1 μl of test compound in 100% DMSO was added to the wells of the plate. DMSO only was added to control wells. Cells were incubated for 24 more hours in complete medium at 37° C. in an atmosphere containing 5% CO2. Methyl ^14C-thymidine 56 mCi/mmol (NEN #NEC568 or Amersham #CFA532) was diluted in complete medium and 0.2 uCi/well was added to each well of the CytoStar plate in a volume of 20 μl. The plate was incubated for 24 hours at 37° C. plus 5% CO2 in drug plus ^14C-thymidine. The contents of the plate were discarded into a ^14C radioactive waste container by inverting the plate and the plate was washed twice with 200 μl PBS. 200 μl of PBS is added to each well. The top of the plate was sealed with a transparent plate sealer and a white plate backing sealer (Packard #6005199) was applied to the bottom of the plate. The degree of methyl ^14C-thymidine incorporation was quantified on a Packard Top Count.

[8] = biological target: T4, HER2 (human epidermal growth factor receptor-2) (Homo sapiens, UniProt P04626); experiment: Kinase Selectivity Assay HER2; type: biochemical
T4 construct: begins at amino acid 676 followed by the remainder of the HER2 cytoplasmic domain; polyhistidine (N)
Procedure, shortened: as §2

[9] = Kinase Selectivity, Tables 2a-2k, read-out: HER2 Kinase IC50

Sequence of Insulin Receptor Kinase (P06213 980-1352): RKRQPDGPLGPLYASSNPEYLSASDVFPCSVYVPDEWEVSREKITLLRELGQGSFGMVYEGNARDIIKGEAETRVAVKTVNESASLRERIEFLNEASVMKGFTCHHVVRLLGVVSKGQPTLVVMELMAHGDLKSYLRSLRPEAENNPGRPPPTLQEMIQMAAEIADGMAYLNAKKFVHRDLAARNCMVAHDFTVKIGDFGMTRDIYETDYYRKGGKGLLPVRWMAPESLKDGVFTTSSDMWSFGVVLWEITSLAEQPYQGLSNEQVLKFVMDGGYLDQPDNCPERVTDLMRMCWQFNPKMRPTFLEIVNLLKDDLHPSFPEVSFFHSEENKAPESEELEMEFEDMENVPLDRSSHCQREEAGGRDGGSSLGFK
T1 sequence (P63086 whole entry, canonical isoform): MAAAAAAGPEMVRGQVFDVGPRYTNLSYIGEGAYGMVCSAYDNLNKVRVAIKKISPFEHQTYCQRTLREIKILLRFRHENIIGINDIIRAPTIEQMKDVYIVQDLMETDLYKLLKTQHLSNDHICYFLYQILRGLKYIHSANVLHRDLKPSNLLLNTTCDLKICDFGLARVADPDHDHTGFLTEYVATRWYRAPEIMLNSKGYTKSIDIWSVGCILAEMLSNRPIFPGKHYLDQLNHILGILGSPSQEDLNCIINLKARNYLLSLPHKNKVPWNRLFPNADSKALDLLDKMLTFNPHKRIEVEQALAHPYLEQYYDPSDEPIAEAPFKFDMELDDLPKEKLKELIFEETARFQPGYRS
T4 sequence (P04626 676-1255 limits assumed): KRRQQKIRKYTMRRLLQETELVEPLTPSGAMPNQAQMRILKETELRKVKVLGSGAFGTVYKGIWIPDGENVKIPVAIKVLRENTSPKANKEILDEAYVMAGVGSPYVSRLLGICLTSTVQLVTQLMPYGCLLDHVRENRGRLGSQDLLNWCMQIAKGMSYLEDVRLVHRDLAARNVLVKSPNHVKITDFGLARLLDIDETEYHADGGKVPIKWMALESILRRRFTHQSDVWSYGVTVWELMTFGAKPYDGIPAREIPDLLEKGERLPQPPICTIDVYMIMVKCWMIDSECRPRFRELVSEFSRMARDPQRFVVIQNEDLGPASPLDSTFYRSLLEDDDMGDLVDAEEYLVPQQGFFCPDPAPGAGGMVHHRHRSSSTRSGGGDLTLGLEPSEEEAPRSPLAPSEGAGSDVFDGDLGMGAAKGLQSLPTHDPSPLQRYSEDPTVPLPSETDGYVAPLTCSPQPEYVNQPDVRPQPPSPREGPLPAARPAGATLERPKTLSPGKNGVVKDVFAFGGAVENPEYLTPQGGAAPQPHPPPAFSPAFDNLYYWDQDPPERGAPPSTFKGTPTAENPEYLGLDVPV

| SMILES | IC50 [1] [nM] | IC50 [2] [nM] | IC50 [3] [nM] | IC50 [4] [nM] | IC50 [5] [nM] | IC50 [6] [nM] | IC50 [7] [nM] | IC50 [8, 9] [nM] | IC50 ([8]; Table 1, read-out: HER2 IC50) [nM] |
| --- | --- | --- | --- | --- | --- | --- | --- | --- | --- |
| CNS(=O)(=O)c1ccc(Nc2nc(N)n(C(=O)c3c(F)ccc(C)c3F)n2)cc1 [Cpd 81, 4-[[5-amino-1-(2,6-difluoro-3-methylbenzoyl)-1H-1,2,4-triazol-3-yl]amino]-N-methyl-benzenesulfonamide] | 778 | 11700 | > 100000 | 29600 | 189 | > 100000 | 1770 |  |  |
| Nc1nc(Nc2ccc(N3CCCS3(=O)=O)cc2)nn1C(=O)c1c(F)cccc1F [Cpd 117] | 1120 | > 100000 | > 100000 | > 100000 | 2060 | > 100000 | 2190 |  |  |
| Nc1nc(Nc2ccc(S(=O)(=O)N3CCCCC3)cc2)nn1C(=O)c1cccs1 [Cpd 23, N^3-[4-(1-piperidinylsulfonyl)phenyl]-1-(2-thienylcarbonyl)-1H-1,2,4-triazole-3,5-diamine] | 376 | 1620 | > 100000 | > 100000 | 1180 | 10500 | 424 |  |  |
| CCc1ccc(C(=O)n2nc(Nc3ccc(S(=O)(=O)NCCN(C)C)cc3)nc2N)s1 [Cpd 103, 4-[[5-amino-1-[(5-ethyl-2-thienyl)carbonyl]-1H-1,2,4-triazol-3-yl]amino]-N-[2-(dimethylamino)ethyl]-benzenesulfonamide] | 75 | 845 | > 100000 | 123 | 62 | > 100000 | 115 | 228 | 228 |
| Nc1nc(Nc2ccc(S(N)(=O)=O)cc2)nn1C(=O)c1c(F)cccc1Cl [Cpd 70, 4-[[5-amino-1-(2-chloro-6-fluorobenzoyl)-1H-1,2,4-triazol-3-yl]amino]-benzenesulfonamide] | 1580 | 19400 | 34200 | > 100000 | 196 | > 100000 | 1100 | 1230 | 1230 |
| Cc1ccc(F)c(C(=O)n2nc(Nc3ccc(S(N)(=O)=O)cc3)nc2N)c1Cl [Cpd 69, 4-[[5-amino-1-(2-chloro-6-fluoro-3-methylbenzoyl)-1H-1,2,4-triazol-3-yl]amino]-benzenesulfonamide] | 1720 | 12500 | 46600 | 45100 | 218 | > 100000 | 441 |  |  |
| Nc1nc(Nc2ccc(S(N)(=O)=O)cc2)nn1C(=O)c1sccc1Cl [Cpd 17, 4-[[5-amino-1-[(3-chloro-2-thienyl)carbonyl]-1H-1,2,4-triazol-3-yl]amino]-benzenesulfonamide] | 309 | 1870 |  | 2020 | 215 | 2800 | 4970 |  |  |
| Nc1nc(Nc2ccc(S(N)(=O)=O)cc2)nn1C(=O)c1ccsc1 [Cpd 30, 4-[[5-amino-1-(3-thienylcarbonyl)-1H-1,2,4-triazol-3-yl]amino]-benzenesulfonamide] | 1930 | 5930 |  | 4960 | 215 | 88300 | 8240 |  |  |
| Nc1nc(Nc2ccc(S(N)(=O)=O)cc2)nn1C(=O)c1sccc1F [Cpd 16, 4-[[5-amino-1-[(3-fluoro-2-thienyl)carbonyl]-1H-1,2,4-triazol-3-yl]amino]-benzenesulfonamide] | 213 | 390 |  | > 100000 | 263 | > 100000 | 942 |  |  |
| CC(O)c1ccc(F)c(C(=O)n2nc(Nc3ccc(S(N)(=O)=O)cc3)nc2N)c1F (stereo not drawn) [Cpd 58, 4-[[5-amino-1-[2,6-difluoro-3-(1-hydroxyethyl)benzoyl]-1H-1,2,4-triazol-3-yl]amino]-benzenesulfonamide] | 1270 | 10700 | > 100000 | > 100000 | 186 | > 100000 | 981 | 654 | 650 |
| Nc1nc(Nc2ccc(S(=O)(=O)Nc3ccccn3)cc2)nn1C(=O)c1c(F)cccc1F [Cpd 118, 4-[[5-amino-1-(2,6-difluorobenzoyl)-1H-1,2,4-triazol-3-yl]amino]-N-(2-pyridinyl)-benzenesulfonamide] | 1170 | > 100000 | > 100000 | > 100000 | 1940 | > 100000 | 1620 | > 10000 | > 10000 |
| Cc1cc(C)c(C(=O)n2nc(Nc3ccc(S(=O)(=O)Nc4ccccn4)cc3)nc2N)s1 [Cpd 120] | 334 | > 100000 | > 100000 | > 100000 | 978 | > 100000 | 259 |  |  |
| Nc1nc(Nc2ccc(S(N)(=O)=O)cc2)nn1C(=O)c1cccs1 [Cpd 14, 4-[[5-amino-1-(2-thienylcarbonyl)-1H-1,2,4-triazol-3-yl]amino]-benzenesulfonamide] | 1940 | 2140 | 5430 | 1200 | 550 | 60400 | 26500 |  |  |
| Nc1nc(Nc2ccc(S(N)(=O)=O)cc2)nn1C(=O)c1c(F)cccc1F [Cpd 1, 4-[[5-amino-1-(2,6-difluorobenzoyl)-1H-1,2,4-triazol-3-yl]amino]-benzenesulfonamide] | 254 |  | > 100000 | > 100000 | 284 | > 100000 | 447 |  |  |
| Cc1ccccc1C(=O)n1nc(Nc2ccc(S(N)(=O)=O)cc2)nc1N [Cpd 57, 4-[[5-amino-1-(2-methylbenzoyl)-1H-1,2,4-triazol-3-yl]amino]-benzenesulfonamide] | 95 | > 100000 | > 100000 | > 100000 | 339 | > 100000 | 113 | 1320 | 1320 |
| Cc1ccc(F)c(C(=O)n2nc(N)nc2Nc2ccc(S(N)(=O)=O)cc2)c1F [Cpd 123, 4-[[3-amino-1-(2,6-difluoro-3-methylbenzoyl)-1H-1,2,4-triazol-5-yl]amino]-benzenesulfonamide] | 4140 | > 100000 | > 100000 | > 100000 | 28500 | > 100000 | > 10000 | > 100000 | ~100000 |
| Cc1ccsc1C(=O)n1nc(Nc2ccc(S(=O)(=O)NCCN(C)C)cc2)nc1N [Cpd 104, 4-[[5-amino-1-[(3-methyl-2-thienyl)carbonyl]-1H-1,2,4-triazol-3-yl]amino]-N-[2-(dimethylamino)ethyl]-benzenesulfonamide] | 41 | > 100000 | > 100000 | 2090 | 186 | > 10000 | 108 |  |  |
| CC(C)(C)c1ccc(C(=O)n2nc(Nc3ccc(S(N)(=O)=O)cc3)nc2N)s1 [Cpd 51, 4-[[5-amino-1-[[5-(1,1-dimethylethyl)-2-thienyl]carbonyl]-1H-1,2,4-triazol-3-yl]amino]-benzenesulfonamide] |  | 928 | 911 | 77 | 220 | 813 | 333 | 31 | 31 |

Reference: US6924302B2, “Substituted triazole diamine derivatives as kinase inhibitors” (Ortho McNeil Pharmaceutical, Inc., priority 2000, dated 2005)
